Measurements from ChEMBL document CHEMBL1127696, “Non-peptide renin inhibitors containing 2-(((3-phenylpropyl)phosphoryl)oxy)alkanoic acid moieties as P2-P3 replacements” (J Med Chem, 1994).

What was measured:
Pepsin A = Pepsin A (Sus scrofa, UniProt P00791); assay: In vitro inhibition of porcine pepsin.
Cathepsin D = biological target: T1, Cathepsin D (Bos taurus, UniProt P80209); assay: In vitro inhibition of bovine cathepsin D.
T1 sequence (P80209 whole entry): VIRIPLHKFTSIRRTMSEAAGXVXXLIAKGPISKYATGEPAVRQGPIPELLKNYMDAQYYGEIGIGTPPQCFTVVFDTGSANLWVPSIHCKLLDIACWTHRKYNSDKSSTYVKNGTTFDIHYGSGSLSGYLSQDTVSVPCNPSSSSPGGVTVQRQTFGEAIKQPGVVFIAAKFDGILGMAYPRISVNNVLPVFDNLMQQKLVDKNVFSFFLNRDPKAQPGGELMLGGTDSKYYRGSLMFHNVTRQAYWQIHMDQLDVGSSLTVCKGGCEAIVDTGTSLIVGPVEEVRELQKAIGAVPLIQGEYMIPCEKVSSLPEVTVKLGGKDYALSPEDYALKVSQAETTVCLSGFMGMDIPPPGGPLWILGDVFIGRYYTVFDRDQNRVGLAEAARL

Renin = biological target: T2, Renin (Homo sapiens, UniProt P00797); assay: In vitro inhibition of human renin.
T2 sequence (P00797 whole entry): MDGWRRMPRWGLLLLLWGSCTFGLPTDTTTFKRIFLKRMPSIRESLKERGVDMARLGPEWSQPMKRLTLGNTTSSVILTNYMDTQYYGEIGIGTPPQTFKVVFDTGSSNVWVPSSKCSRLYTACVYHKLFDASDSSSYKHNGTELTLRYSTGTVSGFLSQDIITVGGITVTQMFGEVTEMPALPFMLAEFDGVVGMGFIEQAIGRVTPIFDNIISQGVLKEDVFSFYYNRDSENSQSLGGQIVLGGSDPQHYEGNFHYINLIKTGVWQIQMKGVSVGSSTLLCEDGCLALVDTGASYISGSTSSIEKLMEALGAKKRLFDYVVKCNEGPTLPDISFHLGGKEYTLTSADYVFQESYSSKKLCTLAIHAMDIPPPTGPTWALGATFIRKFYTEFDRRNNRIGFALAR

Chain of Pepsin A (P00791 whole entry): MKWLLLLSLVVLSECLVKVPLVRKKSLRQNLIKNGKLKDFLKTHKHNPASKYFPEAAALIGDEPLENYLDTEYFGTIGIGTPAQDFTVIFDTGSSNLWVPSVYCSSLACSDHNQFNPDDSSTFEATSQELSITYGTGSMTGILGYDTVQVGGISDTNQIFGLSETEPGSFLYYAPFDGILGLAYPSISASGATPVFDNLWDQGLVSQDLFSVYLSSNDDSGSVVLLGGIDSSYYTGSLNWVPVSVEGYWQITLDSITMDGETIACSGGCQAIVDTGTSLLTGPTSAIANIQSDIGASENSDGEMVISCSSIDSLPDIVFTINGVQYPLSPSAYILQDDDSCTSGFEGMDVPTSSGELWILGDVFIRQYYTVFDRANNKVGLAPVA

SMILES	IC50 (Pepsin A) [nM]	IC50 (Cathepsin D) [nM]	IC50 (Renin) [nM]
CCCC[C@H](OP(=O)(O)CCCc1ccccc1)C(=O)N[C@@H](CC1CCCCC1)[C@@H](O)CC(=O)N[C@@H](C(=O)NCc1cnc(C)nc1N)[C@@H](C)CC	> 10000	> 10000	58
CCCCNC(=O)[C@H](C)C[C@H](O)[C@H](CC1CCCCC1)NC(=O)[C@@H](CCCC)OP(=O)(CCCc1ccccc1)OCC (stereo in doubt; 7i)	> 10000	> 10000	22.5
CCCCNC(=O)[C@H](C)C[C@H](O)[C@H](CC1CCCCC1)NC(=O)[C@@H](CCCC)OP(=O)(CCCc1ccccc1)OCC (stereo in doubt; 7j)	> 10000	> 10000	350
CCCCNC(=O)[C@H](C)C[C@H](O)[C@H](CC1CCCCC1)NC(=O)[C@H](CCCC)OP(=O)(CCCc1ccccc1)OCC (stereo in doubt; 7k)	> 10000	2800	15
CCCCNC(=O)[C@H](C)C[C@H](O)[C@H](CC1CCCCC1)NC(=O)[C@H](CCCC)OP(=O)(CCCc1ccccc1)OCC (stereo in doubt; 7l)	> 10000	> 10000	215
CCC[C@@H](OP(=O)(CCCc1ccccc1)OCC)C(=O)N[C@@H](CC1CCCCC1)[C@@H](O)[C@@H](O)CC(C)C (stereo in doubt; 8f)	> 10000	2150	17.7
CCC[C@@H](OP(=O)(CCCc1ccccc1)OCC)C(=O)N[C@@H](CC1CCCCC1)[C@@H](O)[C@@H](O)CC(C)C (stereo in doubt; 8g)	> 10000	> 10000	130
CCC[C@@H](OP(=O)(CCCc1ccccc1)OCC)C(=O)N[C@@H](CC1CCCCC1)[C@@H](O)[C@@H](O)C1CC1 (stereo in doubt; 8h)	> 10000	4150	20
CCC[C@@H](OP(=O)(CCCc1ccccc1)OCC)C(=O)N[C@@H](CC1CCCCC1)[C@@H](O)[C@@H](O)C1CC1 (stereo in doubt; 8i)	> 10000	> 10000	155

Continued, values first:

IC50 (Pepsin A) [nM]	IC50 (Cathepsin D) [nM]	IC50 (Renin) [nM]	SMILES
> 10000	> 10000	16	CCCCNC(=O)[C@H](C)C[C@H](O)[C@H](CC1CCCCC1)NC(=O)[C@@H](C)OP(=O)(O)CCCc1ccccc1
> 10000	> 10000	3.8	CCCCNC(=O)[C@H](C)C[C@H](O)[C@H](CC1CCCCC1)NC(=O)[C@@H](CCC)OP(=O)(O)CCCc1ccccc1
> 10000	> 10000	25	CCCC[C@H](OP(=O)(O)CCCc1ccccc1)C(=O)N[C@@H](CC1CCCCC1)[C@@H](O)C(O)CC(C)C (stereo partly drawn)
> 10000	> 10000	360	CCCCNC(=O)[C@@H](C)C[C@@H](O)[C@@H](CC1CCCCC1)NC(=O)[C@H](CCCC)OP(=O)(O)CCCCc1ccccc1
> 10000	> 10000	2.5	CCCCNC(=O)[C@H](C)C[C@H](O)[C@H](CC1CCCCC1)NC(=O)[C@H](CCCC)OP(=O)(O)CCCc1ccccc1
> 10000	> 10000	17.5	CCCCNC(=O)[C@H](C)C[C@H](O)[C@H](CC1CCCCC1)NC(=O)[C@H](C)OP(=O)(O)CCCc1ccccc1
> 10000	> 10000	115	CCCC[C@H](OP(=O)(O)CCCc1ccccc1)C(=O)N[C@@H](CC1CCCCC1)[C@@H](O)CCSc1ccccn1
> 10000	> 10000	55	CCCC[C@H](OP(=O)(O)CCCc1ccccc1)C(=O)N[C@@H](CC1CCCCC1)[C@@H](O)C(=O)OC(C)C
> 10000	> 10000	46	CCCCNC(=O)[C@@H](C)C[C@@H](O)[C@@H](CC1CCCCC1)NC(=O)[C@H](CCCC)OP(=O)(O)CCc1ccccc1
> 10000	> 10000	4.8	CCCCNC(=O)[C@@H](C)C[C@@H](O)[C@@H](CC1CCCCC1)NC(=O)[C@H](CCCC)OP(=O)(O)CCCc1ccccc1
> 10000	> 10000	4.2	CCCCNC(=O)[C@H](C)C[C@H](O)[C@H](CC1CCCCC1)NC(=O)[C@H](CCC)OP(=O)(O)CCCc1ccccc1
10000	2300	2.8	CCCCNC(=O)[C@@H](C[C@H](O)[C@H](CC(C)C)NC(=O)[C@H](CCCC)OP(=O)(O)CCCc1ccccc1)C(C)C
